Assay results published in PMC7177633, “Effective Cellular Transport of Ortho-Halogenated Sulfonamide Derivatives of Metformin Is Related to Improved Antiproliferative Activity and Apoptosis Induction in MCF-7 Cells” (International Journal of Molecular Sciences, 2020).
Where two headings read alike, the source gives them in different places.

Legend:
MDA-MB-231 cells [1] = experiment: Cell viability WST-1 assay, MDA-MB-231; assay type: cell-based; conditions: Homo sapiens, WST-1, 24 h; for viability at 3000 µM: MDA-MB-231, 24 h, 3000 µmol/L, read-out: percentage of viability of MDA-MB-231 cells
Procedure: The viability of MCF-7 and MDA-MB-231 cells was determined using a colorimetric WST-1 assay (Takara, Takara Bio Europe, Saint-Germain-en-Laye, France). Both cell lines were seeded at a density of 1 × 10^4 per well on 96-well plates and were cultured for 24 h to obtain 70% confluence. The following day, the cells were treated with various concentrations of compounds 1–9 diluted in the cell culture medium ([…]). The cells were incubated with tested compounds or pure medium (control) for 24 h (37 °C, 5% CO2). Afterwards, the cells were washed with 100 μL of culture medium, and then, the reagent dissolved in the medium was added (100 μL). The plates were incubated at the standard condition for 1.5 h, and the absorbance was read at 450 nm using a microplate reader (iMARK, Bio-Rad, Bio-Rad Laboratories Inc., Hercules, CA, USA). […] The results of samples treated with the test compounds were expressed as a percentage of the control samples. The data were presented as mean ± standard deviation (SD), n = 8. IC50 values (the concentration of the tested compound that inhibited cell growth by 50%) were calculated using a concentration-response curve (GraphPad Prism, Software, San Diego, CA, USA).
The concentrations contributing to the 50% of cell growth inhibition (IC50) were calculated using nonlinear regression analysis (fitting the curve to log (concentration) vs. cellular response).

OCTs = experiment: Inhibition of [14C]choline uptake in MCF-7 cells (competitive inhibition assay); assay type: cell-based, human; conditions: mean ± SD (n = 3)
Procedure: The following day, after removal of the culture medium, the cells were carefully washed with prewarmed HBSS (Hanks’ balanced salt solution) containing 125 mM NaCl, 4.8 mM KCl, 1.2 mM MgSO4, 1.2 mM KH2PO4, 1.3 mM CaCl2, 5.6 mM glucose and 25 mM HEPES (pH 7.4). […] Then, the cells were washed three times with ice-cold HBSS (500 μL) and were lysed with 250 μL of 0.1-M NaOH in the ice bath, and the lysate was mixed with 1.0 mL of an emulsifier safe cocktail (PerkinElmer, Waltham, MA, USA). The radioactivity was measured by liquid scintillation counting (MicroBeta^2 counter, PerkinElmer, Waltham, MA, USA). The studies were carried out with the use of at least three replicates from the same cell passage.

MCF-7 cells [2] = experiment: Cellular uptake of metformin sulfonamides in MCF-7 cells (HPLC); assay type: in vitro ADME, human; conditions: for uptake into MCF-7 cells / uptake in MCF-7 cells relative to metformin: 800 μmol/L; for uptake into MCF-7 cells: 10 min incubation, 37 °C; for uptake in MCF-7 cells relative to metformin: fold higher than parent drug metformin
Procedure: The uptake of metformin sulfonamides (1–9) in MCF-7 and MDA-MB-231 cells was studied by incubation of the cells with 10−3000 μmol/L of compounds in 250 μL of prewarmed HBSS buffer at 37 °C for 10 min. Subsequently, the cells were then washed three times with 500 μL of ice-cold HBSS and lysed with 250 μL of 0.1-M NaOH. The samples were collected, centrifuged (5 min, 1400 rpm) and the supernatants were analyzed by the HPLC method. The concentration of each compound in the cells was calculated on the basis of the standard curve prepared by spiking known amounts of every compound on the cell layers in 250 μL of 0.1-M NaOH.
The concentration of the studied sulfonamides (1–9) was assessed using the HPLC system, consisting of an Agilent 1100 binary pump (Agilent Technologies Inc., Wilmington, DE, USA), an 1100 micro-vacuum degasser, an HP 1050 autosampler and an HP 1050 variable wavelength detector (operated at 235 nm). The chromatographic separations of compounds 1–9 were conducted on an Agilent Zorbax SB-C18 analytical column (4.6 mm × 150 mm, 5 μm) using an isocratic elution of water containing 0.1% formic acid (pH ca. 3.0) and acetonitrile containing 0.1% formic acid with a changing ratio, depending on the compound. The analyses were conducted at room temperature (RT). The detailed procedure of chromatographic analysis was described in our previous paper. The studies were conducted in quadruplicates.
The protein concentrations in representative wells of each plate were assessed using a Bio-Rad protein assay according to the Bradford method (EnVision, PerkinElmer, Inc., Waltham, MA, USA).

MCF-7 cells [3] = experiment: Cell cycle analysis (PI, flow cytometry), MCF-7; assay type: cell-based, human; conditions: MCF-7, 24 h
Procedure: (§1) MCF-7 and MDA-MB-231 cells were seeded in 6-well plates at a density of 2 × 10^5 cells per well and cultured for 24 h under standard conditions (with 2 mL of the medium). Next, cells were exposed to the tested compounds at concentrations corresponding to IC50. After 24 h of treatment, control and treated cells were then collected (washed with cold PBS and treated with accutase), transferred to Eppendorf tubes and centrifuged (1100 rpm, 5 min, 5 °C). The supernatant was discarded, cold PBS was added (1 mL) and the cells were centrifuged (1200 rpm, 5 min). The solution was removed, and the cells were fixed in cold 70% ethanol at 4 °C. Prior to the analysis, the cells were centrifuged (3600 rpm, 5 min) and washed twice with PBS. The solution was discarded, the pellets were suspended in 200 µL of PBS and incubated with ribonuclease at 37 °C (25 µL, final concentration in a sample was 100 µg/mL) for 30 min and stained with propidine iodide (12.5 µL, final concentration in a sample was 50 µg/mL) in darkness at room temperature for additional 20 min. The final volume of the sample was 250 µL.
(§2) DNA content and the number of cells in individual cell cycle phases was measured by flow cytometry (CytoFlex, blue laser, 480 nm, Beckman-Coulter, Indianapolis, IN, USA). Cells (20,000) were analyzed from each sample. The percentage of cells in each cell cycle phase was calculated from live cells that were expressed as 100%. The data are presented as the mean ± SD of three independent experiments. The coefficients of variation for the assay were established (CV = 0.37–11.78%, depending on the cell population).

MDA-MB-231 cells [4] = experiment: Cell cycle analysis (PI, flow cytometry), MDA-MB-231; assay type: cell-based, human; conditions: MDA-MB-231, 24 h, 2600 µmol/L (IC50 value)
Procedure: as §1, §2

[5] = Eadie-Hofstee analysis, transporter I
[6] = Eadie-Hofstee analysis, transporter I, read-out: Km, transporter I, MCF-7
[7] = Eadie-Hofstee analysis, transporter II
[8] = Eadie-Hofstee analysis, transporter II, read-out: Km, transporter II, MCF-7
[9] = IC50 (Comp. 1 13, Comp. 4 430, Comp. 7 55 μmol/L)
[10] = Michaelis-Menten curve, read-out: Km MCF-7 (Michaelis Menten curves)

| Compound | viability at 3000 µM (MDA-MB-231 cells [1]) | IC50 (OCTs) | uptake into MCF-7 cells (MCF-7 cells [2]) | Vmax, transporter I, MCF-7 (MCF-7 cells [2]; [5]) | Km (MCF-7 cells [2]; [6]) | Vmax, transporter II, MCF-7 (MCF-7 cells [2]; [7]) | Km (MCF-7 cells [2]; [8]) | uptake in MCF-7 cells relative to metformin (MCF-7 cells [2]) | G0/G1 (MCF-7 cells [3]; [9]) | G2/M (MCF-7 cells [3]; [9]) | S (MCF-7 cells [3]; [9]) | Sub G0/G1 (MCF-7 cells [3]; [9]) | G0/G1 (MCF-7 cells [3]; IC50 (Comp. 1 13, Comp. 4 430, Comp. 7 55 µmol/L), listed as Comp. 1) | IC50 (MDA-MB-231 cells [1]; MDA-MB-231, mean ± SD (n = 6–8), read-out: IC50 inhibition of MDA-MB-231 cells' viability) | G0/G1 (MDA-MB-231 cells [4]) | G2/M (MDA-MB-231 cells [4]) | S (MDA-MB-231 cells [4]) | Sub G0/G1 (MDA-MB-231 cells [4]) | Vmax MCF-7 (Michaelis Menten curves) (MCF-7 cells [2]; Michaelis-Menten curve) | Km (MCF-7 cells [2]; [10]) |
| --- | --- | --- | --- | --- | --- | --- | --- | --- | --- | --- | --- | --- | --- | --- | --- | --- | --- | --- | --- | --- |
| CN(C)C(=N)N=C(N)NS(=O)(=O)c1ccccc1Cl [Compound 1] | ~60% | 1050 ± 14.2 µM | 1.79 ± 0.79 nmol/min/mg protein | 18.53 ± 2.41 nmol/min/mg | 6.72 ± 0.982 mM | 62.84 ± 21.37 nmol/min/mg | 21.1 ± 7.73 mM | approximately 14 fold | 38.76 ± 0.80% | 17.54 ± 0.48 % | 35.45 ± 0.23 % | 8.28 ± 1.04 % | 38.76 ± 0.80 % | – | – | – | – | – | – | – |
| CN(C)C(=N)N=C(N)NS(=O)(=O)c1ccccc1F [Compound 7] | – | 6354 ± 12.9 µM | 1.592 ± 0.943 nmol/min/mg protein | 5.303 ± 1.334 nmol/min/mg | 2.13 ± 0.815 mM | 22.43 ± 12.78 nmol/min/mg | 6.14 ± 4.6 mM | approximately 14 fold | 56.48 ± 3.34 % | 15.43 ± 0.93 % | 10.34 ± 0.74 % | 17.85 ± 2.08 % | – | 2590 ± 150 µM | 64.31 ± 1.13 % | 12.24 ± 0.10 % | 19.99 ± 0.97 % | 3.41 ± 0.08 % | 23.92 ± 7.20 nmol/min/mg | 10.8 ± 5.13 mM |
| CN(C)C(=N)N=C(N)NS(=O)(=O)c1ccccc1Br [Compound 4] | ~56.4% | 1670 ± 8.5 µM | – | 0.031 ± 0.002 nmol/min/mg | 1.54 ± 0.22 mM | 0.153 ± 0.022 nmol/min/mg | 8.37 ± 1.43 mM | – | 73.69 ± 0.26 % | 8.21 ± 0.03 % | 15.16 ± 0.54 % | 2.98 ± 0.40% | – | – | – | – | – | – | 0.049 ± 0.02 nmol/min/mg | 2.47 ± 0.652 mM |
